According to patent US8921358B2, “Apoptosis signal-regulating kinase 1 inhibitors” (Takeda Pharmaceutical Company Limited, priority 2008, dated 2014):
Structures can show the parent of a compound that is named as a salt.

biological target: T1, human ASK1 (Homo sapiens, UniProt Q99683); assay: Scintillation assay measuring inhibition of ASK1 phosphorylation of myelin basic protein; assay type: biochemical; settings: active ASK1 protein 30 ng, myelin basic protein 1 μg, [γ-32P]ATP, room temperature 30 min; values given as ranges; read-out: Enzyme Activity IC50
T1 construct: a 2.2 kb DNA fragment containing an ASK1 gene was recovered from the gel; made in house; host or cells: Sf-21 insect cells, recombinant baculovirus (pFASTBAC1, Bac-to-Bac)
T1 sequence (Q99683 649-1374 limits assumed): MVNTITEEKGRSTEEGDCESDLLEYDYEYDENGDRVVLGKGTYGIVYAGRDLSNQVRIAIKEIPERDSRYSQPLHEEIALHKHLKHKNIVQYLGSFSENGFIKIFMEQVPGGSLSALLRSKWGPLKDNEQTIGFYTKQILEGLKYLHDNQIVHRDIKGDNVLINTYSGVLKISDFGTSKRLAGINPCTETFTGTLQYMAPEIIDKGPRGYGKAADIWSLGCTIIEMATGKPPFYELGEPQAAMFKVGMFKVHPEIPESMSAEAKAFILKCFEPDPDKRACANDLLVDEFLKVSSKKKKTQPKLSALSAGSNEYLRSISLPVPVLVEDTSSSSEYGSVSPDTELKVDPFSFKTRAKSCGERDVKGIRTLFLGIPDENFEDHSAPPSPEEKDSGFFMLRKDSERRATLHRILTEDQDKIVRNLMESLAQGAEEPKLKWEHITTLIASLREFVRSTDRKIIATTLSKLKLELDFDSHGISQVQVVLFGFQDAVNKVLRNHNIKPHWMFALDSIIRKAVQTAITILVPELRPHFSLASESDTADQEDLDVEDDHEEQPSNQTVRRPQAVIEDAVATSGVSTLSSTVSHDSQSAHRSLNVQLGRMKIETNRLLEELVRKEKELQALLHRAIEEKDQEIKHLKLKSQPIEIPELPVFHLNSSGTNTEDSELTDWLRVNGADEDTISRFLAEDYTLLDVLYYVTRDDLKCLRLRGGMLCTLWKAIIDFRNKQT
Protocol: Cloning of cDNA encoding human ASK1 was conducted by PCR using primers, 5′-[…] AGAGAAGGGGA-3′ (SEQ ID NO: 1) and 5′-[…]-3′ (SEQ ID NO: 2), from human heart cDNA library (Becton, Dickinson and Company). The PCR product was subjected to agarose gel (1%) electrophoresis, a 2.2 kb DNA fragment containing an ASK1 gene was recovered from the gel, and then digested with restriction enzymes, NotI and SalI, and inserted into a plasmid pFASTBAC1 (Invitrogen) to prepare a plasmid pFB-ASK1. The insert was verified by sequencing. Recombinant baculovirus was prepared according to the procedure of the Bac-to-Bac baculovirus expression system (Invitrogen).
Sf-21 cells were seeded to achieve 1×10^6 cells/mL in 100 mL of Sf-900 II SFM medium (Invitrogen) which contains 10% fetal calf serum and then cultured at 27° C. for 24 hrs. To express ASK1 in cells, 0.15 mL of the recombinant baculovirus virus stock was added to cells, and the then cultured for 60 hrs. The cells were separated from the culture solution by centrifugation at 3000 rpm for 10 min and washed once with PBS. The cells were suspended in 10 mL of lysis buffer (25 mM HEPES (pH 7.5), 1% Triton X, 130 mM NaCl, 1 mM EDTA, 1 mM DTT, 25 mM β-glycerophosphate, Protease inhibitor complete (Roche), 1 mM sodium orthovanadate) and ruptured by four times of treatment with a homogenizer (POLYTRON) at 20000 rpm for 30 seconds. Active ASK1 protein was purified from a supernatant obtained by centrifugal separation at 40000 rpm for 45 min using anti-FLAG M2 Affinity Gel (Sigma).
The test compounds (2.5 μl) dissolved in DMSO were added to wells containing 37.5 μl of the reaction solution (25 mM HEPES (pH 7.5), 10 mM magnesium acetate, 1 mM DTT) including 30 ng of active ASK1 protein and 1 μg of myelin basic protein (Wako), and incubated at room temperature for 5 min. To start the reaction, 10 μL of ATP solution (2.5 μM ATP, 0.1 μCi [γ-^32P]ATP) was added to wells. After incubating at room temperature for 30 min, the reaction was terminated by adding 50 μl of 20% TCA solution. The reaction solution was incubated at 4° C. for 30 min and an acid-insoluble fraction was transferred onto a GF/C filter (Packard) with Cell Harvester (Packard), and washed with 250 mM phosphoric acid. After drying at 45° C. for 60 min., 40 μL of Microscint 0 (Packard) was added and the radioactivity was measured with TopCount (Packard). The concentrations (IC50 value) of the test compounds necessary for 50% inhibition of kinase activity were calculated by PRISM 3.0 (Graphpad Software).
The enzyme activities of selected compounds of the present invention against ASK1 were determined using the assay disclosed in Example A and B. The resulted pIC50 values are reported in Table 1.

Structure (SMILES) | IC50
CC(C)(O)c1ccc(C(=O)Nc2cc(-c3ccc(C(F)(F)F)cc3)n3nccc3n2)cc1 [Compound 24, 4-(2-hydroxypropan-2-yl)-N-(7-(4-(trifluoromethyl)phenyl)pyrazolo[1,5-a]pyrimidin-5-yl)benzamide] | 0.1 to 1 µM
Cc1cc2nc(NC(=O)c3ccc(C(C)(C)CO)cc3)cc(-c3ccccc3)n2n1 [Compound 29, 4-(1-hydroxy-2-methylpropan-2-yl)-N-(2-methyl-7-phenylpyrazolo[1,5-a]pyrimidin-5-yl)benzamide] | < 0.1 µM
CC(C)(C)c1ccc(C(=O)Nc2cc(-c3cccc(CC#N)c3)n3nccc3n2)cc1 [Compound 34, 4-tert-butyl-N-{7-[3-(cyanomethyl)phenyl]pyrazolo[1,5-a]pyrimidin-5-yl}benzamide] | < 0.1 µM
CC(C)(C)c1ccc(C(=O)Nc2cc(-c3ccc(C(N)=O)cc3)n3nccc3n2)cc1 [Compound 42, 4-tert-butyl-N-(7-(4-carbamoylphenyl)pyrazolo[1,5-a]pyrimidin-5-yl)benzamide] | < 0.1 µM
CC(C)(O)c1ccc(C(=O)Nc2cc(N3CCc4ccccc4C3)n3nccc3n2)cc1 [Compound 64, N-(7-(3,4-dihydroisoquinolin-2(1H)-yl)pyrazolo[1,5-a]pyrimidin-5-yl)-4-(2-hydroxypropan-2-yl)benzamide] | < 0.1 µM
CC(C)(C)c1ccc(C(=O)Nc2cc(N3CCOCC3)n3nccc3n2)cc1 [Compound 65, 4-tert-butyl-N-(7-morpholinopyrazolo[1,5-a]pyrimidin-5-yl)benzamide, trifluoroacetate salt] | < 0.1 µM
CC(C)(C)c1ccc(C(=O)Nc2cc(N3CCc4ccccc4C3)n3nccc3n2)cc1 [Compound 66, 4-tert-butyl-N-(7-(3,4-dihydroisoquinolin-2(1H)-yl)pyrazolo[1,5-a]pyrimidin-5-yl)benzamide] | < 0.1 µM
CC(C)(O)c1ccc(C(=O)Nc2cc(N3CCC[C@H]3CO)n3nccc3n2)cc1 [Compound 67, (S)—N-(7-(2-(hydroxymethyl)pyrrolidin-1-yl)pyrazolo[1,5-a]pyrimidin-5-yl)-4-(2-hydroxypropan-2-yl)benzamide] | 0.1 to 1 µM
CC(C)(O)c1ccc(C(=O)Nc2cc(N3CCC[C@@H]3CO)n3nccc3n2)cc1 [Compound 68, (R)—N-(7-(2-(hydroxymethyl)pyrrolidin-1-yl)pyrazolo[1,5-a]pyrimidin-5-yl)-4-(2-hydroxypropan-2-yl)benzamide] | 0.1 to 1 µM
CC(C)(O)c1ccc(C(=O)Nc2cc(N3CC[C@@H](O)C3)n3nccc3n2)cc1 [Compound 69, (R)-4-(2-hydroxypropan-2-yl)-N-(7-(3-hydroxypyrrolidin-1-yl)pyrazolo[1,5-a]pyrimidin-5-yl)benzamide] | 0.1 to 1 µM
CC(C)(O)c1ccc(C(=O)Nc2cc(N3CC[C@H](O)C3)n3nccc3n2)cc1 [Compound 70, (S)-4-(2-hydroxypropan-2-yl)-N-(7-(3-hydroxypyrrolidin-1-yl)pyrazolo[1,5-a]pyrimidin-5-yl)benzamide] | 0.1 to 1 µM
CC(C)(O)c1ccc(C(=O)Nc2cc(N3CCC(CCO)CC3)n3nccc3n2)cc1 [Compound 71, N-(7-(4-(2-hydroxyethyl)piperidin-1-yl)pyrazolo[1,5-a]pyrimidin-5-yl)-4-(2-hydroxypropan-2-yl)benzamide] | < 0.1 µM
CC(C)(O)c1ccc(C(=O)Nc2cc(N3CCOCC3)n3nccc3n2)cc1 [Compound 72, 4-(2-hydroxypropan-2-yl)-N-(7-morpholinopyrazolo[1,5-a]pyrimidin-5-yl)benzamide] | < 0.1 µM
CC(C)(O)c1ccc(C(=O)Nc2cc(N3CCC(O)CC3)n3nccc3n2)cc1 [Compound 73, N-(7-(4-hydroxypiperidin-1-yl)pyrazolo[1,5-a]pyrimidin-5-yl)-4-(2-hydroxypropan-2-yl)benzamide] | 0.1 to 1 µM
CC(C)(O)c1ccc(C(=O)Nc2cc(N3CCCCC3CCO)n3nccc3n2)cc1 (stereo not shown) [Compound 74, N-(7-(2-(2-hydroxyethyl)piperidin-1-yl)pyrazolo[1,5-a]pyrimidin-5-yl)-4-(2-hydroxypropan-2-yl)benzamide] | 0.1 to 1 µM
CC(C)(C)c1ccc(C(=O)Nc2cc(N3CCC[C@H](O)C3)n3nccc3n2)cc1 [Compound 75, (S)-4-tert-butyl-N-(7-(3-hydroxypiperidin-1-yl)pyrazolo[1,5-a]pyrimidin-5-yl)benzamide] | 0.1 to 1 µM
CC(C)(O)c1ccc(C(=O)Nc2cc(N3CCC[C@@H](O)C3)n3nccc3n2)cc1 [Compound 76, (R)—N-(7-(3-hydroxypiperidin-1-yl)pyrazolo[1,5-a]pyrimidin-5-yl)-4-(2-hydroxypropan-2-yl)benzamide] | 0.1 to 1 µM
CC(C)(C)c1ccc(C(=O)Nc2cc(N3CCC[C@@H](O)C3)n3nccc3n2)cc1 [Compound 77, (R)-4-tert-butyl-N-(7-(3-hydroxypiperidin-1-yl)pyrazolo[1,5-a]pyrimidin-5-yl)benzamide] | < 0.1 µM
CC(C)(O)c1ccc(C(=O)Nc2cc(N3CCC[C@H](O)C3)n3nccc3n2)cc1 [Compound 78, (S)—N-(7-(3-hydroxypiperidin-1-yl)pyrazolo[1,5-a]pyrimidin-5-yl)-4-(2-hydroxypropan-2-yl)benzamide] | 0.1 to 1 µM
CC(C)(O)c1ccc(C(=O)Nc2cc(N3CCc4[nH]ncc4C3)n3nccc3n2)cc1 [Compound 79, N-(7-(6,7-dihydro-1H-pyrazolo[4,3-c]pyridin-5(4H)-yl)pyrazolo[1,5-a]pyrimidin-5-yl)-4-(2-hydroxypropan-2-yl)benzamide] | 0.1 to 1 µM
CC(C)(O)c1ccc(C(=O)Nc2cc(N3CCC[C@@H](C(N)=O)C3)n3nccc3n2)cc1 [Compound 83, (R)-1-(5-(4-(2-hydroxypropan-2-yl)benzamido)pyrazolo[1,5-a]pyrimidin-7-yl)piperidine-3-carboxamide] | < 0.1 µM
CC(C)(O)c1ccc(C(=O)Nc2cc(N3CCC[C@@H](C(=O)O)C3)n3nccc3n2)cc1 [Compound 84, (R)-1-(5-(4-(2-hydroxypropan-2-yl)benzamido)pyrazolo[1,5-a]pyrimidin-7-yl)piperidine-3-carboxylic acid] | 0.1 to 1 µM
CC(C)(O)c1ccc(C(=O)Nc2cc(N3CCC[C@H](C(N)=O)C3)n3nccc3n2)cc1 [Compound 85, (S)-1-(5-(4-(2-hydroxypropan-2-yl)benzamido)pyrazolo[1,5-a]pyrimidin-7-yl)piperidine-3-carboxamide] | 0.1 to 1 µM
CC(C)(O)c1ccc(C(=O)Nc2cc(N3CCC[C@H](C(=O)O)C3)n3nccc3n2)cc1 [Compound 86, (S)-1-(5-(4-(2-hydroxypropan-2-yl)benzamido)pyrazolo[1,5-a]pyrimidin-7-yl)piperidine-3-carboxylic acid] | > 1 µM
CC(C)(O)c1ccc(C(=O)Nc2cc(N3CCCC3)n3nccc3n2)cc1 [Compound 87, 4-(2-hydroxypropan-2-yl)-N-(7-(pyrrolidin-1-yl)pyrazolo[1,5-a]pyrimidin-5-yl)benzamide] | < 0.1 µM
